Reference: patent US6914045B2, “Glycopeptide antibiotics” (Wyeth Holdings Corporation, priority 2001, dated 2005)
Values after ≈ are worked out from the molar mass of the structure shown.

Experiments:
Assay in all cases: in vitro antibacterial evaluation, MIC by broth dilution
Format in all cases: cell-based
Details in all cases: broth dilution, 18 hours at 35° C.
Streptococcus sp. = tested on: Streptococcus sp.
Method: (§1) Methods for in vitro Antibacterial Evaluation (Table 1)
(§2) The minimum inhibitory concentration (MIC), the lowest concentration of the antibiotic which inhibits growth of the test organism, is determined by the broth dilution method using Muller-Hinton II […] (Baltimore Biological Laboratories) following the recommendations of the National Committee for Clinical Laboratory Standards [Methods for dilution antimicrobial susceptibility tests for bacteria that grow aerobically, approved standard M7-A2, National Committee for Clinical Laboratory Standards, Villanova, Pa.].
(§3) An inoculum level of 5×10^5 CFU/mL, and a range of antibiotic concentrations (64-0.06 μg/mL) is used. […] The test organisms include a spectrum of Gram-positive bacteria comprised of Staphylococcus sp., Streptococcus sp. and Enterococcus sp. These organisms include recent clinical isolates that are resistant to methicillin, penicillin and/or vancomycin.

Staphylococcus sp. = tested on: Staphylococcus sp.
Method: as §1, §2, §3

Enterococcus sp. = tested on: Enterococcus sp.
Method: as §1, §2, §3

Escherichia coli = tested on: Escherichia coli
Summary of the method: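 Broth dilution MIC per NCCLS M7-A2 in Mueller-Hinton II medium, inoculum 5×10^5 CFU/mL, antibiotic range 64-0.06 μg/mL. MIC taken as lowest concentration inhibiting growth.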

MIC Streptococcus pneumoniae (ATCC 6301) (Streptococcus sp.; strain ATCC 6301): >128 µg/mL
MIC Streptococcus pneumoniae (GC 1894) (Streptococcus sp.; strain GC 1894): 128 µg/mL (≈ 102 µM)
MIC Streptococcus pyogenes (GC 4563) (Streptococcus sp.; strain GC 4563): 128 µg/mL (≈ 102 µM)
MIC Streptococcus agalactiae (GC 4564) (Streptococcus sp.; strain GC 4564): >128 µg/mL
MIC Streptococcus pneumoniae (GC 4565) (Streptococcus sp.; strain GC 4565): >128 µg/mL
MIC Staphylococcus aureus (ATCC 29213) (Staphylococcus sp.; strain ATCC 29213): >128 µg/mL
MIC Staphylococcus aureus (GC 1131) (Staphylococcus sp.; strain GC 1131): >128 µg/mL
MIC Staphylococcus aureus (GC 3051) (Staphylococcus sp.; strain GC 3051): >128 µg/mL
MIC Staphylococcus aureus (GC 3053) (Staphylococcus sp.; strain GC 3053): >128 µg/mL
MIC Staphylococcus aureus (GC 4541) (Staphylococcus sp.; strain GC 4541): >128 µg/mL
MIC Staphylococcus aureus (GC 4542) (Staphylococcus sp.; strain GC 4542): >128 µg/mL
MIC Staphylococcus aureus-SMITH (GC 4543) (Staphylococcus sp.; strain GC 4543): >128 µg/mL
MIC Staphylococcus aureus (GC 4544) (Staphylococcus sp.; strain GC 4544): >128 µg/mL
MIC Staphylococcus aureus (GC 4545) (Staphylococcus sp.; strain GC 4545): >128 µg/mL
MIC Coagulase Negative Staphylococcus (GC 4547) (Staphylococcus sp.; strain GC 4547): 64 µg/mL (≈ 51.2 µM)
MIC Coagulase Negative Staphylococcus (GC 4548) (Staphylococcus sp.; strain GC 4548): 128 µg/mL (≈ 102 µM)
MIC Coagulase Negative Staphylococcus (GC 4549) (Staphylococcus sp.; strain GC 4549): 64 µg/mL (≈ 51.2 µM)
MIC Coagulase Negative Staphylococcus (GC 4551) (Staphylococcus sp.; strain GC 4551): >128 µg/mL
MIC Coagulase Negative Staphylococcus (GC 6257) (Staphylococcus sp.; strain GC 6257): 64 µg/mL (≈ 51.2 µM)
MIC Enterococcus faecalis (ATCC 29212) (Enterococcus sp.; strain ATCC 29212): >128 µg/mL
MIC Enterococcus faecalis (GC 2242) (Enterococcus sp.; strain GC 2242): >128 µg/mL
MIC Enterococcus faecium (GC 2243) (Enterococcus sp.; strain GC 2243): >128 µg/mL
MIC Enterococcus faecalis (GC 2691) (Enterococcus sp.; strain GC 2691): >128 µg/mL
MIC Enterococcus faecalis (GC 3059) (Enterococcus sp.; strain GC 3059): >128 µg/mL
MIC Enterococcus faecalis (GC 4552) (Enterococcus sp.; strain GC 4552): >128 µg/mL
MIC Enterococcus faecalis (GC 4553) (Enterococcus sp.; strain GC 4553): 128 µg/mL (≈ 102 µM)
MIC Enterococcus faecalis (GC 4554) (Enterococcus sp.; strain GC 4554): >128 µg/mL
MIC Enterococcus faecium (GC 4556) (Enterococcus sp.; strain GC 4556): >128 µg/mL
MIC Enterococcus faecium (GC 4557) (Enterococcus sp.; strain GC 4557): 128 µg/mL (≈ 102 µM)
MIC Enterococcus avium (GC 4558) (Enterococcus sp.; strain GC 4558): 128 µg/mL (≈ 102 µM)
MIC Enterococcus faecalis (GC 6189) (Enterococcus sp.; strain GC 6189): >128 µg/mL
MIC Escherichia coli (ATCC 25922) (Escherichia coli; strain ATCC 25922): >128 µg/mL
MIC Escherichia coli (GC 4559) (Escherichia coli; strain GC 4559): 128 µg/mL (≈ 102 µM)
MIC Escherichia coli (GC 4560) (Escherichia coli; strain GC 4560): 64 µg/mL (≈ 51.2 µM)
SMILES: CC(c1ccccc1)C1NC(=O)CNC(=O)C(CO)NC(=O)C(C(O)C2CNC(=N)N2C2OC(CO)C(O)C(O)C2O)NC(=O)C(C(O)C2CNC(=N)N2)NC(=O)C(Cc2ccc3oc(-c4ccccc4OC4OC(CO)C(O)C(O)C4O)nc3c2)NC1=O (stereo not drawn) [Example 36, Cyclo[3-[2-[2-(hexopyranosyloxy)phenyl]-1,3-benzoxazol-5-yl]alanyl-3-(2-iminoimidazolidin-4-yl)seryl-3-(3-hexopyranosyl-2-iminoimidazolidin-4-yl)serylserylglycyl-β-methyl-phenylalanyl]]
MIC Staphylococcus haemolyticus (GC 4546) (Staphylococcus sp.; strain GC 4546): 64 µg/mL (≈ 51.2 µM)
